From US12479843B2, “Spiro ring-containing quinazoline compounds” (WIGEN BIOMEDICINE TECHNOLOGY (SHANGHAI) CO., LTD., priority 2019, dated 2025) come the findings set out here.

For series [1], the system named is pERK level in H358 cells. Briefly: pERK and ERK protein content assay in H358 cells (ELISA). In kind it is cell-based. The note with it: 24 h, pERK/ERK ratio compared with DMSO group; for inhibition at 1 µM: Homo sapiens, NCI-H358, compound 1 μM, read-out: Inhibition rate (%) of pERK level. In outline:
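H358 cells grown one day, then treated 24 h with compound at 1 μM. pERK and ERK in lysates measured by ELISA; pERK/ERK ratio expressed as percent inhibition versus DMSO.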

Series [2] relates to H358 cells. Briefly: Antiproliferative activity against H358 cells (Cell Titer Glow, ultra-low attachment plate). In kind it is cell-based. The note with it: three days after addition of compound. How it is done:
2500 H358 cells were seeded in a 96-well ultra-low attachment plate (corning, 7007). After one day of growth, a serially diluted compound (a maximum concentration of 5 μM, 5-fold dilution, a total of five doses) was added. Three days after the addition of the compound, Cell Titer Glow (Promega, G9681) was added to evaluate pellet growth, and the IC50 value was calculated.

Series [3] can be described thus: Pharmacokinetic evaluation in mice. The settings on record: for Vd: read-out: Vss; for F: po 10 mg/kg vs iv 2 mg/kg. The format is in vivo, male ICR mice. Here is the method:
The compounds were administered by intravenous injection at a dose of 2 mg/kg and oral gavage at a dose of 10 mg/kg (0.5% CMC-Na suspension). 15 male ICR mice were selected for each group, and each mouse was subjected to blood collection at 3 discrete time points, with 3 mice per time point. The time points of sampling were as follows: before the administration, and at 5 min, 15 min, 30 min, 1 h, 3 h, 5 h, 8 h, 12 h and 24 h after the administration. 80 μL of blood was collected from the eye sockets or the hearts of the mice at each of the time points after the administration. All whole blood samples were collected in tubes containing EDTA K2 and centrifuged (1500-1600 rmp) at 4° C. for 10 min to isolate plasma, which was then stored in a refrigerator at −90 to −60° C. for sample analysis. The compound concentration in the plasma was determined by liquid chromatography-tandem mass spectrometry, and the corresponding pharmacokinetic parameters were obtained according to a plasma concentration-time curve.

The test system of series [4] is Human pancreatic cancer Mia PaCa-2 cells. Briefly: Antitumor activity on graft tumors of human pancreatic cancer Mia PaCa-2 in nude mice. The note with it: Mia PaCa-2 graft tumors in nude mice, 10 mg/kg intragastric, qd*21. The format is in vivo. How it is done:
Human pancreatic cancer Mia PaCa-2 cells were cultured conventionally in 1640 medium containing 10% fetal bovine serum in a 37° C./5% CO2 incubator. After passage, the cells were collected when they reached the desired amount. 1×10^7 Mia PaCa-2 cells were injected into the left dorsal side of each nude mouse, and the animals were randomly grouped for administration after tumors grew to 150 mm3. The groups are as follows: 1) a solvent control group of 8 mice; and 2) compound 1 group, compound 2 group, compound 5 group, compound 31 group, compound 131 group, compound 142 group, compound 171 group, compound B group and compound C group, with 8 mice per group. Mice in the solvent control group were subjected to intragastric administration of 0.5% CMC-Na once daily; mice in compound 1 group, compound 2 group, compound 5 group, compound 31 group, compound 131 group, compound 142 group, compound 171 group, compound B group and compound C group were subjected to intragastric administration of a suspension of a compound in 0.5% CMC-Na once daily. On Tuesday and Thursday each week, tumor volumes and body weight of the mice were measured, and the nude mice were sacrificed on day 21 of administration.

The test system of series [5] is phosphorylated ERK (pERK) level in H358 cells. Kind of series: pERK level assay by western blot in H358 cells. The settings on record: overnight incubation, same concentration, FIG. 1. The format is cell-based. Here is the method: H358 cells were plated on to a 24-well plate at 2×10^5 cells/well. Serially diluted compounds including AMG510, MRTX849, compound 142 and compound 171 were added. After overnight incubation, cells were lysed, and proteins were quantified and subjected to gel electrophoresis.
(In western blotting, separated proteins are transferred to a membrane and probed.)

Setting [6] is: Homo sapiens, NCI-H358, 72 h, 96-well ultra-low attachment plate, Cell Titer Glow.
[7] abbreviates: male, ICR, mouse, plasma, iv, 2 mg/kg.
The mark [8] stands for this setting: male, ICR, mouse, plasma, iv, 2 mg/kg, read-out: Cmax.
Setting [9] is: male, ICR, mouse, plasma, iv, 2 mg/kg, read-out: Tmax.
Where [10] appears, read: male, ICR, mouse, plasma, po, 10 mg/kg, 0.5% CMC-Na suspension.
[11] abbreviates: male, ICR, mouse, plasma, po, 10 mg/kg, 0.5% CMC-Na suspension, read-out: Cmax.
[12] abbreviates: male, ICR, mouse, plasma, po, 10 mg/kg, 0.5% CMC-Na suspension, read-out: Tmax.
The mark [13] stands for this setting: po, 10 mg/kg, 0.5% CMC-Na suspension.

Where two headings read alike, the source gives them in different places. A value given as a limit tells only on which side of the number the result lay.

With `C=CC(=O)N1CC2(CCN(c3nc(N4CC(N5CCC5)C4)nc4c(OCC(F)(F)F)c(-c5c(C)ccc6[nH]ncc56)c(C5CC5)cc34)CC2)C1` [Compound 142], in series [1], the inhibition at 1 µM is over 90%. Also, the IC50 in series [2] (setting [6]) is under 300 nM; in series [2] (Homo sapiens, NCI-H358, 72 h), 2.5 nM. In addition, the AUC(0-t) in series [3] (setting [7]) came out at 52000 ng·h/mL; in series [3] (setting [10]), 46000 ng·h/mL. Also, the clearance in series [3] (setting [7]) was 0.642 mL/min/kg. Besides, the half-life in series [3] (setting [7]) is 3.31 h; in series [3] (setting [10]), 3.89 h. Further, the figures for the Cmax in series [3] (setting [8]) and in series [3] (setting [11]) were 13100 ng/mL and 6730 ng/mL, respectively. Further, the Tmax in series [3] (setting [9]) is 0.083 h; in series [3] (setting [12]), 2 h. Moreover, the Vd in series [3] (setting [7]) was determined as 0.187 L/kg. The F in series [3] was found to be 17.7%. Besides, the “Anti-tumor effect (regression)” value in series [4] amounted to 35% regression. For the same molecule, the “inhibition of the phosphorylated ERK (pERK) level in cells compared with AMG510 and MRTX849” value in series [5] is “stronger inhibition”.
Consider `C=CC(=O)N1CC2(CCN(c3nc(N4CC(N5CCCC5)C4)nc4c(OCC(F)(F)F)c(-c5c(C)ccc6[nH]ncc56)c(C5CC5)cc34)CC2)C1` [Compound 171], for which the inhibition at 1 µM in series [1] is over 90%. Moreover, the half-maximal inhibitory concentration (IC50) is under 300 nM in series [2] (setting [6]) and 1.4 nM in series [2] (Homo sapiens, NCI-H358, 72 h). The results for the exposure AUC(0-t) in series [3] (setting [7]) and in series [3] (setting [10]) were 26500 ng·h/mL and 35700 ng·h/mL, respectively. Moreover, the clearance in series [3] (setting [7]) was 1.26 mL/min/kg. For the same molecule, the half-life in series [3] (setting [7]) was 4.85 h; in series [3] (setting [10]) it was 3.93 h. Also, the Cmax in series [3] (setting [8]) stood at 4910 ng/mL; in series [3] (setting [11]) it was 3320 ng/mL. Moreover, the Tmax came to 0.083 h in series [3] (setting [9]) and 2 h in series [3] (setting [12]). Further, in series [3] (setting [7]), the Vd was 0.505 L/kg. In series [3], this molecule showed an F of 26.9%. Also, the “Anti-tumor effect (regression)” value in series [4] came to 38% regression.
Turning to `C=CC(=O)N1CC2(CCN(c3nc(N4CC(N(C)C)C4)nc4c(OCC(F)(F)F)c(-c5c(C)ccc6[nH]ncc56)c(C=C)cc34)CC2)C1` [Compound C, reference compound], the “Inhibition rate (%) of pERK level” value in series [1] (compound 1 μM) is given as “+++ (+++ indicates an inhibition rate greater than 90%.)”. Further, the IC50 in series [2] (96-well ultra-low attachment plate, Cell Titer Glow) was under 300 nM. In addition, in series [2], the midpoint of inhibition, the IC50, lay at 5.1 nM. Further, in series [3] (iv, 2 mg/kg), the Cl amounted to 1.65 mL/min/kg, the Cmax is reported as 3210 ng/mL, the Tmax came out at 0.083 h and the Vss is 0.481 L/kg. In series [3] (iv, 2 mg/kg), this molecule gave a t1/2 of 4.02 h. Besides, in series [3], the F is listed as 24.6%. Also, in series [3] (setting [13]), the Cmax was found to be 3110 ng/mL, the Tmax was determined as 0.5 h and the t1/2 is 3.38 h. Further, in series [4], the “Anti-tumor effect (regression)” value was found to be 8% regression.

Usually inhibition stands for the percentage by which the read-out fell short of the control. By IC50 is commonly meant the concentration that gives 50% inhibition. One may read the AUC(0-t) as exposure summed from dosing to a finite time, without extrapolation to infinity. Read a low AUC(0-t) as less exposure. In general, clearance refers to a measure of how efficiently the substance is removed, as volume per time. Higher therefore signals efficient removal. The half-life is the time needed for the level to fall by half in the phase considered. High values mean slow loss, low ones fast loss. As usually defined, the Cmax is the maximum level reached in the sampled fluid or tissue. As a reminder, the Tmax is the time at which the peak concentration occurs. Broadly, the Vss is a proportionality between amount in the body and measured concentration, not a real space.
